One block for each compound: values may come before it.
Legend:
[1] = system: staphylococcus aureus; experiment: Surface Antimicrobial Kill Testing Method, activity normalized to triclosan internal standard (Gram positive); assay type: cell-based
Protocol: (§1) Inoculum is prepared by streaking microorganism onto a Tryptic Soy Agar (TSA) plate and incubating for 24 h at 33° C. Plated bacteria is resuspended in saline until the transmittance percentage falls within the accepted range for ˜10^8 cfu/mL. For K. pneumonia (Kp) and P. aeruginosa (Pa), this is 31.00-33.00% T. For S. aureus (Sa) this is 23.00-25.00% T. A 10× concentration is made by spinning down the prepared inoculum, removing the supernatant saline from the bacterial pellet, then resuspending the pellet in 1/10th of the original volume of saline. The final inoculum is prepared with 5% of “soil” in the form of Fetal Bovine Serum (FBS).
(§2) A 18×18 mm sterile glass coverslip is placed into an appropriate container (e.g. petri dish). 20 μL of prepared inoculum is added to the glass coverslip. Inoculum is then air-dried for 30 minutes in a 36° C. incubator. After drying, 40 μL of test sample is added on top of the dried inoculum. This is incubated at room temperature for the desired contact time. 5 mL of neutralizing media (Modified Letheen Broth+Tween+Lecithin (MLBTL)) is added to the coverslip and shaken on an orbital shaker for 5 minutes to ensure proper neutralization and extraction. Viability is then assessed of the neutralized and extracted sample by traditional/alternative microbiological techniques.
(§3) The normalized antimicrobial activity reported in the performance examples below was generated from detection time data obtained as described in the Surface Antimicrobial Kill Test Method. To account for day-to-day variability an internal standard was tested with each series. The internal standard was a composition of 0.25 wt % Triclosan, Sigma Aldrich (St. Louis, MO, USA; CAS #3380-34-5, 97.0-103.0% (active substance, GC)), 50 wt % DMSO, and 49.75 wt % H2O, with a final solution pH of 7.7. Normalized activity is reported following the equation 1 below.
(§4) Normalized Activity=(αΔDT-βΔDT)/(γΔDT-βΔDT) equation 1.
(§5) where, αΔDT is the average detection time of the antimicrobial compound, and γΔDT is the average detection time of the reference triclosan internal standard, and βΔDT is the average detection time of the background unperturbed bacteria.
(§6) Pyridinium esters of the present disclosure were tested as aqueous solutions in the Surface Antimicrobial Kill Testing Method above. To prepare test solutions pyridinium esters were first dissolved in the appropriate solvent. Second the selected surfactant is added to the mixture. After vortex (1 min, Vortex-2 Genie, vortex speed 8) mixing, the samples were then diluted with ½ portion of reverse osmosis water (RO water, Millipore Direct-Q™, pH 6). The aqueous solution was then vortexed (1 min, Vortex-2 Genie, vortex speed 8), to which the second ½ portion of water is added. The pH of the solution was then adjusted to the target pH using either 1N HCl, Glacial Acetic Acid, or 1N NaOH. The final solution was then vortexed (1 min, Vortex-2 Genic, vortex speed 8). An example batch sheet is provided below in Table 1.
(§7) In Performance Examples 1-4 below, formulations comprising solvent, surfactant, and pyridinium esters according to the present disclosure (e.g., based on hexyl 3-(alkylpyridinium)acrylate halides), are evaluated via microbial surface kill tests according to the Surface Antimicrobial Kill Testing Method provided above. After treatment, microbial growth is referenced and reported to a triclosan sample and unaltered microbes according to the Normalization of Antimicrobial Activity provided above.

[2] = Stability of the isolated solid by 1H NMR; assay type: physicochemical
[3] = system: Gram Negative bacteria; experiment: Surface Antimicrobial Kill Testing Method, activity normalized to triclosan internal standard (Gram negative); assay type: cell-based; conditions: water, pH 7
Protocol: as §1, §2, §3, §4, §5, §6, §7

[4] = 0.5 wt % compound, 3 wt % DEGBE, 1 wt % EcoSurf EH-9, 95.5 wt % reverse osmosis water, pH 7

SMILES: CCCCCCOC(=O)/C=C/c1cccnc1 [Synthetic Example 1, hexyl 3-(3-pyridyl)acrylate]
Gram Positive Referenced Microbial Activity [1, 4]: 0.11

Stability of the independent solid by 1H NMR [2]: stable for several months
SMILES: CCCCCCOC(=O)/C=C/c1ccc[n+](C)c1.[I-] [Synthetic Example 3, hexyl 3-(3-methylpyridinium)acrylate iodide]
Gram Positive Referenced Microbial Activity [1, 4]: 0.21

Stability of the independent solid by 1H NMR [2]: stable for several months
SMILES: CCCCCCOC(=O)/C=C/c1cc[n+](C)cc1.[I-] [Synthetic Example 4, hexyl 3-(4-methylpyridinium)acrylate iodide]
Gram Positive Referenced Microbial Activity [1, 4]: 1.2

SMILES: CCCCCCOC(=O)/C=C/c1ccc[n+](CCCCCC)c1.[Br-] [Synthetic Example 5, hexyl 3-(3-hexylpyridinium)acrylate bromide]
Stability of the independent solid by 1H NMR [2]: stable for several months
Gram Positive Referenced Microbial Activity ([1]; 0.063 wt % Synthetic Example 5, 1 wt % EcoSurf EH9, 3 wt % DEGBE, water, pH 7): 0.55
Gram Positive Referenced Microbial Activity ([1]; 0.125 wt % Synthetic Example 5, 1 wt % EcoSurf EH9, 3 wt % DEGBE, water, pH 7): 0.93
Gram Positive Referenced Microbial Activity ([1]; 0.25 % Synthetic Example 5, 1 wt % Crodasinic LS30, 3 wt % DEGBE, water, pH 7): 0.42
Gram Positive Referenced Microbial Activity ([1]; 0.25 % Synthetic Example 5, 1 wt % EH6, 3 wt % DEGBE, water, pH 7): 1.09
Gram Positive Referenced Microbial Activity ([1]; 0.25 % Synthetic Example 5, 1 wt % L24-9, 3 wt % DEGBE, water, pH 7): 0.54
Gram Positive Referenced Microbial Activity ([1]; 0.25 % Synthetic Example 5, 1 wt % Miranol Ultra, 3 wt % DEGBE, water, pH 7): 0.78
Gram Positive Referenced Microbial Activity ([1]; 0.25 % Synthetic Example 5, 1 wt % Plantaren 2000, 3 wt % DEGBE, water, pH 7): >2.33
Gram Positive Referenced Microbial Activity ([1]; 0.25 % Synthetic Example 5, 1 wt % SLS, 3 wt % DEGBE, water, pH 7): 0.20
Gram Positive Referenced Microbial Activity ([1]; 0.25 % Synthetic Example 5, 1 wt % Tween80, 3 wt % DEGBE, water, pH 7): 0.57
Gram Positive Referenced Microbial Activity ([1]; 0.25 wt % Synthetic Example 5, 1 wt % EcoSurf EH9, 3 wt % DEGBE, water, pH 7): 2.02
Gram Positive Referenced Microbial Activity ([1]; 0.5 wt % Synthetic Example 5, 1 wt % EcoSurf EH9, 3 wt % DEGBE, water, pH 7 (concentration series)): >2.87
Gram Positive Referenced Microbial Activity [1, 4]: >1.42
pH range of formulations in which antimicrobial efficacy is maintained ([1]; formulations of table 16): 3-9
Concentration down to which antimicrobial efficacy against staphylococcus aureus is maintained ([1]; formulations of table 17): ≥ 0.063 wt %
Gram Positive Referenced Microbial Activity ([1]; pH 3, 0.5 wt % compound, 1 wt % EcoSurf EH9, 3 wt % DEGBE, 95.5 wt % water): >2.58
Gram Positive Referenced Microbial Activity ([1]; pH 7, 0.5 wt % compound, 1 wt % EcoSurf EH9, 3 wt % DEGBE, 95.5 wt % water (pH series)): >2.8
Gram Positive Referenced Microbial Activity ([1]; pH 9, 0.5 wt % compound, 1 wt % EcoSurf EH9, 3 wt % DEGBE, 95.5 wt % water): 2.53
Gram Negative Referenced Microbial Activity ([3]; 0.25 % Synthetic Example 5, 1 wt % Crodasinic LS30, 3 wt % DEGBE): 0.41
Gram Negative Referenced Microbial Activity ([3]; 0.25 % Synthetic Example 5, 1 wt % EH6, 3 wt % DEGBE): >2.58
Gram Negative Referenced Microbial Activity ([3]; 0.25 % Synthetic Example 5, 1 wt % L24-9, 3 wt % DEGBE): 1.34
Gram Negative Referenced Microbial Activity ([3]; 0.25 % Synthetic Example 5, 1 wt % Miranol Ultra, 3 wt % DEGBE): 1.92
Gram Negative Referenced Microbial Activity ([3]; 0.25 % Synthetic Example 5, 1 wt % Plantaren 2000, 3 wt % DEGBE): >2.58
Gram Negative Referenced Microbial Activity ([3]; 0.25 % Synthetic Example 5, 1 wt % SLS, 3 wt % DEGBE): 0.08
Gram Negative Referenced Microbial Activity ([3]; 0.25 % Synthetic Example 5, 1 wt % Tween80, 3 wt % DEGBE): 1.37

Stability of the independent solid by 1H NMR [2]: stable for several months
SMILES: CCCCCCOC(=O)/C=C/c1cc[n+](CCCCCC)cc1.[Br-] [Synthetic Example 6, hexyl 3-(4-hexylpyridinium)acrylate bromide]
Gram Positive Referenced Microbial Activity [1, 4]: >1.39

Stability of the independent solid by 1H NMR [2]: stable for several months
SMILES: CCCCCCCC[n+]1cccc(/C=C/C(=O)OCCCCCC)c1.[Br-] [Synthetic Example 7, hexyl 3-(3-octylpyridinium)acrylate bromide]
Gram Positive Referenced Microbial Activity [1, 4]: >1.42

Stability of the independent solid by 1H NMR [2]: stable for several months
SMILES: CCCCCCCC[n+]1ccc(/C=C/C(=O)OCCCCCC)cc1.[Br-] [Synthetic Example 8, hexyl 3-(4-octylpyridinium)acrylate bromide]
Gram Positive Referenced Microbial Activity [1, 4]: >1.33

From patent US20240217932A1, “PYRIDIUM ESTERS” (The Procter & Gamble Company, priority 2022, published 2024)
